# Measured values from ChEMBL document CHEMBL1130976, “5-Aminomethylquinoxaline-2,3-diones. Part I: A novel class of AMPA receptor antagonists” (Bioorg Med Chem Lett, 1998).
# What was measured:
# [1] = target: Glutamate receptors; NMDA/AMPA; experiment: In vitro binding affinity to the AMPA receptor using [3H]AMPA binding assay; format: protein-complex assay
# [2] = Tested for solubility in water at pH 7.4; format: ADME
# Mus musculus [3] = experiment: Tested for anticonvulsion activity in the electroshock-induced convulsion assays in mice after 30 min of ip administration; format: functional; details: 0.5 h
# [4] = target: Glutamate receptor ionotropic, NMDA 1 (Rattus norvegicus, UniProt P35439); experiment: Tested for in vitro binding affinity against glycine-bining site of NMDA receptor using [3H]MDL-105519 binding assay
# Mus musculus [5] = experiment: Tested for anticonvulsion activity in the metrazole-induced convulsion assays in mice after 30 min of ip administration; format: functional; details: 0.5 h
# Mus musculus [6] = experiment: Tested for anticonvulsion activity in the mice after 1 hr pretreatment of oral administration; format: functional
# [7] = target: Glutamate receptor ionotropic, AMPA (Rattus norvegicus) (UniProt P19491+P19492+P19493+P19490); experiment: Tested for in vitro binding affinity against AMPA receptor using [3H]AMPA binding assay at a concentration of 1 uM; format: protein-complex assay
# Mus musculus [8] = experiment: Tested for anticonvulsion activity in the electroshock-induced convulsion assays in mice at 50 mg/kg after 30 min (i.p. administration ); format: functional; details: route intraperitoneal
# Mus musculus [9] = experiment: Tested for anticonvulsion activity in the electroshock-inducedconvulsion assays in mice at 50 mg/kg after 30 min (i.p. administration ); format: functional; details: route intraperitoneal
Compound,IC50 [1] [µM],other results
CCN(CC)Cc1cc2nc(O)c(O)nc2cc1[N+](=O)[O-],0.84,–
COC1CCN(Cc2cc3nc(O)c(O)nc3cc2[N+](=O)[O-])CC1,0.43,–
NC(=O)C1CCN(Cc2cc3nc(O)c(O)nc3cc2[N+](=O)[O-])CC1,0.76,–
O=[N+]([O-])c1cc2nc(O)c(O)nc2cc1CN1CCNCC1,11,–
Br.O=C(O)C1CCN(Cc2cc3nc(O)c(O)nc3cc2[N+](=O)[O-])CC1,0.07,solubility [2]: 1680 µg/mL; ED50 (Mus musculus [3]): 44 mg/kg; IC50 [4]: 3.9 µM
CC1CCCN(Cc2cc3nc(O)c(O)nc3cc2[N+](=O)[O-])C1 (stereo not given),0.6,–
O=[N+]([O-])c1cc2nc(O)c(O)nc2cc1CN1CCCCCC1,0.58,–
CCOC(=O)C1CCN(Cc2cc3nc(O)c(O)nc3cc2[N+](=O)[O-])CC1,0.35,IC50 [4]: 0.59 µM
O=[N+]([O-])c1cc2nc(O)c(O)nc2cc1CN1CCCC(O)C1 (stereo not given),0.43,–
O=[N+]([O-])c1cc2nc(O)c(O)nc2cc1CN1CC=CCC1,0.36,–
Br.CC1CCN(Cc2cc3nc(O)c(O)nc3cc2[N+](=O)[O-])CC1,0.37,ED50 (Mus musculus [3]): 33 mg/kg; ED50 (Mus musculus [5]): 16 mg/kg; ED50 (Mus musculus [6]): 54 mg/kg
O=C(O)C1CCCN(Cc2cc3nc(O)c(O)nc3cc2Br)C1 (stereo not given),2.5,–
O=C(O)C1CCCCN1Cc1cc2[nH]c(=O)c(=O)[nH]c2cc1Br (stereo not given),–,IC50 [4]: 0.84 µM
O=C(O)C1CCCCN1Cc1cc2nc(O)c(O)nc2cc1Br (stereo not given),–,inhibition [7]: 18%
Br.O=[N+]([O-])c1cc2nc(O)c(O)nc2cc1CN1CCCC1,0.28,ED50 (Mus musculus [5]): 26 mg/kg; Protection (Mus musculus [8]): 40%
O=C(O)C1CCN(Cc2cc3nc(O)c(O)nc3cc2Br)CC1,0.89,–

Compound,IC50 [1] [µM],other results
O=C(O)C1(c2ccccc2)CCN(Cc2cc3nc(O)c(O)nc3cc2[N+](=O)[O-])CC1,2,–
CC1CN1Cc1cc2nc(O)c(O)nc2cc1[N+](=O)[O-] (stereo not given),2.2,–
O=[N+]([O-])c1cc2nc(O)c(O)nc2cc1CN1CCCC(CO)C1 (stereo not given),0.52,–
CN1CCN(Cc2cc3nc(O)c(O)nc3cc2[N+](=O)[O-])CC1,3.4,–
O=C(O)[C@H]1CCCN1Cc1cc2nc(O)c(O)nc2cc1[N+](=O)[O-],0.46,–
O=[N+]([O-])c1cc2nc(O)c(O)nc2cc1CN1CCC(c2ccccc2)CC1,0.43,IC50 [4]: 0.33 µM
Br.O=[N+]([O-])c1cc2nc(O)c(O)nc2cc1CN1CC=CC1,0.49,ED50 (Mus musculus [5]): 35 mg/kg; Protection (Mus musculus [9]): 60%
O=[N+]([O-])c1cc2nc(O)c(O)nc2cc1CN1CCC1,1.5,IC50 [4]: 3.8 µM
Br.O=[N+]([O-])c1cc2nc(O)c(O)nc2cc1CN1CCC(O)C1 (stereo not given),0.33,ED50 (Mus musculus [3]): 34 mg/kg
O=[N+]([O-])c1cc2nc(O)c(O)nc2cc1CN1CCC(O)CC1,0.31,–
O=C(O)C1CCN(Cc2cc3nc(O)c(O)nc3c([N+](=O)[O-])c2Br)CC1,–,inhibition [7]: 15%
O=[N+]([O-])c1cc2nc(O)c(O)nc2cc1CN1CCCCC1,0.29,–
O=C(O)[C@H]1[C@H](O)CCN1Cc1cc2nc(O)c(O)nc2cc1[N+](=O)[O-],2.1,–
O=[N+]([O-])c1cc2nc(O)c(O)nc2cc1CN1CCOCC1,0.66,–
O=[N+]([O-])c1cc2nc(O)c(O)nc2cc1CN1CCCC1CO (stereo not given),0.7,–
